The values that follow come from patent US4450234A, “Antibiotic C-15003 PHM and production thereof” (Takeda Chemical Industries, Ltd., priority 1979, dated 1984).

Values after ≈ are worked out from the molar mass of the structure shown.

Series [1] can be described thus: Neutral lipophilic character. The series is classed as physicochemical.
The test system of the next series is Tetrahymena pyriformis W. Description: Antiprotozoan growth inhibition, serial broth dilution method. It is filed as cell-based. The following applies: 44 h, 28° C., 44 to 48 hours, pH 7.0, serial broth dilution, read-out: growth inhibitory concentration. The method, then: In addition, using Tetrahymena pyriformis W strain as the test organism and the assay medium composed of 20 g proteose peptone (Difco, U.S.A.), 1 g yeast extract, 2 g glucose, 1000 ml distilled water and 10 ml 1 M phosphate buffer, pH 7.0, cultivation was carried out at 28° C. for 44 to 48 hours and the growth inhibitory concentration of the antibiotic was determined by the serial broth dilution method.
Tetrahymena pyriformis W, as the test organism, was cultivated on an assay medium [20 g of proteose-peptone (Difco, U.S.A.), 1 g of yeast extract, 2 g of glucose, 1000 ml of distilled water, 10 ml of 1 M phosphate buffer, pH 7.0] at 28° C. for 44 to 48 hours and the growth inhibitory activity of the compound against the above-mentioned strain was assayed by the serial dilution method.
For orientation: Dilution methods test growth across graded concentrations, often in twofold steps.

A further series has as its system Escherichia coli. Description: Antibacterial activity, paper disk method. It is filed as cell-based. To be noted: paper disk 8 mm, 0.02 ml of 300 μg/ml solution, Trypticase-soy-agar. Here is the method:
(§1) Using Trypticase-soy-agar (Baltimore Biologicals, U.S.A.) as the assay medium, the growth inhibitory concentrations of the compound against the various microorganisms named hereinbelow were determined by the paperdisk method. Thus, on plate media containing the following microorganisms, respectively, minimal inhibitory concentrations were determined using paper disks imbibed with 0.02 ml of a 300 μg/ml solution of PHM-3 or PHM-4 (disks, Toyo Seisakusho, Japan, thin-type, diam. 8 mm).
(§2) Escherichia coli, Proteus vulgaris, Proteus mirabilis, Pseudomonas aeruginosa, Staphylococcus aureus, Bacillus subtilis, Bacillus cereus, Klebsiella pneumoniae, Serratia marcessence, Mycobacterium avium.
(§3) Using Trypticase-soy-agar (Baltimore Biologicals, U.S.A.) as the test medium, the growth inhibitory activity of the compound against the organisms named below was assayed by the paper disk method. Thus, on the plate media each containing one of the undermentioned organisms, the activity of the compound was tested using paper disks (Toyo Seisakusho, Japan, thin type, diam. 8 mm) imbibed with 0.02 ml of a 300 μg/ml solution of PHM-3-acetate.
(§4) Escherichia coli, Proteus vulgaris, Proteus mirabilis, Pseudomonas aeruginosa, Staphylococcus aureus, Bacillus subtilis, Bacillus cereus, Klebsiella pneumoniae, Serratia marcescence, Mycobacterium avium.

The test system of a further series is Staphylococcus aureus. Description: Antibacterial activity, paper disk method. It is filed as cell-based. The following applies: paper disk 8 mm, 0.02 ml of 300 μg/ml solution, Trypticase-soy-agar. Here is the method: as §1, §2, §3, §4
In another series the test system is Klebsiella pneumoniae. Description: Antibacterial activity, paper disk method. The series is classed as cell-based. The following applies: paper disk 8 mm, 0.02 ml of 300 μg/ml solution, Trypticase-soy-agar. Here is the method:
as §1, §2, §3, §4

The subject of another series is Bacillus cereus. Description: Antibacterial activity, paper disk method. The series is classed as cell-based. To be noted: paper disk 8 mm, 0.02 ml of 300 μg/ml solution, Trypticase-soy-agar. Here is the method:
as §1, §2, §3, §4

The subject of the next series is Mycobacterium avium. Description: Antibacterial activity, paper disk method. The series is classed as cell-based. The following applies: paper disk 8 mm, 0.02 ml of 300 μg/ml solution, Trypticase-soy-agar. Here is the method: as §1, §2, §3, §4
The subject of another series is Serratia marcessence. Description: Antibacterial activity, paper disk method. The series is classed as cell-based. To be noted: paper disk 8 mm, 0.02 ml of 300 μg/ml solution, Trypticase-soy-agar. Here is the method:
as §1, §2, §3, §4

For another series, the system named is Proteus vulgaris. Description: Antibacterial activity, paper disk method. It is filed as cell-based. To be noted: paper disk 8 mm, 0.02 ml of 300 μg/ml solution, Trypticase-soy-agar. Here is the method:
as §1, §2, §3, §4

For a further series, the system named is Pseudomonas aeruginosa. Description: Antibacterial activity, paper disk method. It is filed as cell-based. The following applies: paper disk 8 mm, 0.02 ml of 300 μg/ml solution, Trypticase-soy-agar. The method, then:
as §1, §2, §3, §4

A further series deals with Bacillus subtilis. Description: Antibacterial activity, paper disk method. The following applies: paper disk 8 mm, 0.02 ml of 300 μg/ml solution, Trypticase-soy-agar. The series is classed as cell-based. The method, then: as §1, §2, §3, §4
Another series deals with Proteus mirabilis. Description: Antibacterial activity, paper disk method. It is filed as cell-based. The following applies: paper disk 8 mm, 0.02 ml of 300 μg/ml solution, Trypticase-soy-agar. Here is the method: as §1, §2, §3, §4
A further series relates to Nocardia sp. No. N-1231. Description: Antibiotic resistance of No. N-1231 strain. It is filed as cell-based.

For `COc1cc2cc(c1Cl)N(C)C(=O)CC(O)C1(C)OC1C(C)C1CC(O)(NC(=O)O1)C(OC)/C=C/C=C(\C)C2` (stereo not drawn) [P-0, maytansinol], the “neutral lipophilic / fat-soluble character” value in series [1] is “neutral lipophilic”.

As to `COc1cc2cc(c1Cl)N(C)C(=O)CC(OC(C)=O)C1(C)OC1C(C)C1CC(O)(NC(=O)O1)C(OC)C=CC=C(C)C2` (stereo not drawn) [P-1, maytanacine], the “neutral lipophilic / fat-soluble character” value in series [1] is “neutral lipophilic”.

For the compound `CCC(=O)OC1CC(=O)N(C)c2cc(cc(OC)c2Cl)CC(C)=CC=CC(OC)C2(O)CC(OC(=O)N2)C(C)C2OC12C` (stereo not drawn) [P-2, maytansinol propionate], the “neutral lipophilic / fat-soluble character” value in [1] is listed as “neutral lipophilic”.

Regarding `COc1cc2cc(c1Cl)N(C)C(=O)CC(OC(=O)C(C)C)C1(C)OC1C(C)C1CC(O)(NC(=O)O1)C(OC)C=CC=C(COC(C)=O)C2` (stereo not drawn) [PHM-3-acetate], the MIC in the series with Tetrahymena pyriformis W came to 8 µg/mL (≈ 11.5 µM). Also, the “activity (growth inhibition)” value with Escherichia coli, with Staphylococcus aureus, with Klebsiella pneumoniae, in the series on Bacillus cereus, in the series with Mycobacterium avium and in the series on Serratia marcessence was “failed to show activity” throughout. Moreover, the “activity (growth inhibition)” value in the series on Proteus vulgaris, in the series with Pseudomonas aeruginosa, in the series on Bacillus subtilis and in the series on Proteus mirabilis was “failed to show activity” each time.

On to `COc1cc2cc(c1Cl)N(C)C(=O)CC(OC(=O)C(C)C)C1(C)OC1C(C)C1CC(O)(NC(=O)O1)C(OC)C=CC=C(CO)C2` (stereo not drawn) [PHM-3], for which the MIC in the series on Tetrahymena pyriformis W amounted to 40 µg/mL (≈ 61.4 µM). For the same compound, the “activity (growth inhibition)” value in the series on Escherichia coli, in the series on Staphylococcus aureus, in the series with Klebsiella pneumoniae, in the series with Bacillus cereus, with Mycobacterium avium and with Serratia marcessence was “no activity” in each case. In addition, the “activity (growth inhibition)” value in the series on Proteus vulgaris, with Pseudomonas aeruginosa, with Bacillus subtilis and with Proteus mirabilis was “no activity” in each case.

Consider `COc1cc2cc(c1Cl)N(C)C(=O)CC(OC(=O)CC(C)C)C1(C)OC1C(C)C1CC(O)(NC(=O)O1)C(OC)C=CC=C(CO)C2` (stereo not drawn) [PHM-4], for which the MIC in the series with Tetrahymena pyriformis W stood at 40 µg/mL (≈ 60.1 µM). The “activity (growth inhibition)” value in the series on Escherichia coli, with Staphylococcus aureus, with Klebsiella pneumoniae, in the series on Bacillus cereus, in the series on Mycobacterium avium and in the series with Serratia marcessence was “no activity” in each case. Further, the “activity (growth inhibition)” value in the series with Proteus vulgaris, in the series on Pseudomonas aeruginosa, with Bacillus subtilis and in the series on Proteus mirabilis was “no activity” throughout.

For the compound `CCC[C@@H]1C[C@@H](C(=O)N[C@@H]([C@H]2O[C@H](SC)[C@H](O)[C@@H](O)[C@H]2O)[C@@H](C)O)N(C)C1` [lincomycin], in the series with Nocardia sp. No. N-1231, the “resistance of No. N-1231 strain” value is reported as “resistant”.

Turning to `CC1(C)S[C@@H]2[C@H](NC(=O)Cc3ccccc3)C(=O)N2[C@H]1C(=O)O` [penicillin G], the “resistance of No. N-1231 strain” value in the series with Nocardia sp. No. N-1231 is “resistant”.

Regarding `[H]/N=C(/N)N[C@H]1[C@H](O)[C@@H](O)[C@H](O[C@@H]2O[C@@H](C)[C@](O)(C=O)[C@H]2O[C@@H]2O[C@@H](CO)[C@H](O)[C@@H](O)[C@@H]2NC)[C@@H](N/C(N)=N\[H])[C@@H]1O` [streptomycin], the “resistance of No. N-1231 strain” value in the series on Nocardia sp. No. N-1231 is recorded as “resistant”.
